Measured values: patent publication US20240207286A1, “ASBT INHIBITORS IN THE TREATMENT OF RENAL DISEASES” (Albireo AB, priority 2022, published 2024)
Each block holds one compound with its values, some of them ahead of it.

Legend:
BDL mice [1] = assay: Short-term effect of ASBT inhibition on urinary bile acid excretion in BDL mice (Example 2); assay type: in vivo, mice (C57BL/6n); conditions: female BDL mice; 15, 30, 60 or 120 mg/kg p.o. twice daily for 5 days (day 7-11); all treated groups
Procedure: The short-term effect of oral administration of Compound 1 to BDL mice on the urinary excretion of bile acids was evaluated.
Female mice (C57BL/6n) were used. After completion of quarantine and acclimatization period, animals were randomized based on body weight into experimental groups (n=4-7 mice in each). On day 0, animals underwent bile duct ligation. Compound 1 was administered orally by gavage twice per day. Spontaneous urine samples were collected before BDL and on days 7, 8, 9, 10, 11 and 12 after BDL by cannulation of the urinary bladder, and the concentration of bile acids in urine was determined.

BDL mice [2] = assay: Therapeutic time window in BDL mice, 28 days treatment (Example 4); assay type: in vivo, mice (C57BL/6n); conditions: 60 mg/kg p.o. twice daily for 28 days
Procedure: The effect of the time period before start of treatment with Compound 1 on kidney injury in BDL mice was evaluated.
Male mice (C57BL/6n) were used. After completion of quarantine and acclimatization period, animals were randomized based on body weight into experimental groups (n=7 mice per group). On day 0, animals underwent bile duct ligation or sham surgery. From day 3, 21, 42 or 63, animals were treated for 28 days with either vehicle or with Compound 1 at a dose of 60 mg/kg, as shown in Table 4 below. Compound 1 was administered p.o. twice per day. The animals were weighed every day. Blood, urine, bile and tissue samples were collected at the end of the experiment.

Bioavailability in mice = conditions: C57BL/6, mouse, in vivo
Procedure: (§1) ASBT inhibitor compounds 1 to 5 were used in the experiments described herein. Values were determined using the assays described in e.g. WO 2020/161217.

BDL mice [3] = assay: Long-term effect on cholemic nephropathy in bile duct ligated mice, 6 weeks (Example 3); assay type: in vivo, mice (C57BL/6n)
Procedure: The long-term effect of Compound 1 on kidney injury in BDL mice was studied by histology, clinical chemistry and intravital imaging.
[…] […] On day 0, animals underwent bile duct ligation or sham surgery. Compound 1 was administered orally by gavage twice per day. Spontaneous urine samples were collected before BDL as well as on day 1 and weeks 1, 2, 3, 4, 5, and 6 after BDL by cannulation of the urinary bladder. Blood, urine, bile and tissue samples were collected at the end (week 6) of the experiment.

hIBAT = target: T1, hIBAT (Homo sapiens, UniProt Q12908); assay: hIBAT potency (IC50); assay type: cell-based
T1 sequence (Q12908 1-348): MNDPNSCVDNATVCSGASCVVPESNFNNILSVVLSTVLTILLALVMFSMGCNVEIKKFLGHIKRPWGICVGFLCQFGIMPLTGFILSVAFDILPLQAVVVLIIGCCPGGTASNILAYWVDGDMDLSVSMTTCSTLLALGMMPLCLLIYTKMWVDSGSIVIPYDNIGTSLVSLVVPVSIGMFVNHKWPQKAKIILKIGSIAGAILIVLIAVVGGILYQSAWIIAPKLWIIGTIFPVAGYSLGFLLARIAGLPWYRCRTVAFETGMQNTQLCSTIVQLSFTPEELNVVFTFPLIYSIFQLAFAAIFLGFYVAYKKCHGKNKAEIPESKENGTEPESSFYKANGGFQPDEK
Procedure: as §1

BDL mice [4] = assay: Comparison of ASBT inhibitors in BDL mice, 19 days treatment (Example 5); assay type: in vivo, mice (C57BL/6n); conditions: male BDL mice; for serum bile acids / urine bile acids: p.o. once daily for 19 days, Compound 1 60 mg/kg, Compound 2 3 and 10 mg/kg; for urinary NGAL: p.o. once daily, after treatment for 18 days
Procedure: Male mice (C57BL/6n) were used. After completion of quarantine and acclimatization period, animals were randomized based on body weight into experimental groups (n=12 mice per bile duct ligation group along with 5 sham operated controls). On day 0, animals underwent bile duct ligation or sham surgery. The ASBT inhibitors were administered p.o. once daily. The animals were weighed every day. At day 21, blood samples were taken 2 and 6 hours after the final dose. At day 24, animals were sacrificed and samples (urine and blood; liver, kidney, heart and spleen tissues) were collected and analysed.

Caco-2 permeability = assay type: in vitro ADME; conditions: human; for Papp A→B: A2B; for Papp B→A: B2A
Excerpt: Some ASBT inhibitors may show improved or optimal permeability. The permeability may be measured in Caco2 cells, and values are given as Papp (apparent permeability) values in cm/s. In some embodiments, the permeability is between about 0.01×10^−6 cm/s and about 50×10^−6 cm/s, such as between about 0.05×10^−6 cm/s and about 40×10^−6 cm/s, or such as between about 0.1×10^−6 cm/s and about 30×10^−6 cm/s. In some embodiments, the permeability is greater than at least about 0.1×10^−6 cm/s, such as greater than about 0.2×10^−6 cm/s, such as greater than about 0.4×10^−6 cm/s, such as greater than about 0.7×10^−6 cm/s, such as greater than about 1.0×10^−6 cm/s, such as greater than about 2×10^−6 cm/s, such as greater than about 3×10^−6 cm/s, such as greater than about 5×10^−6 cm/s, such as greater than about 7×10^−6 cm/s, such as greater than about 10×10^−6 cm/s, such as greater than about 15×10^−6 cm/s.
as §1

BDL mice [5] = assay: Comparison of ASBT inhibitors in BDL mice, 5 days treatment (Example 6); assay type: in vivo, mice (C57BL/6n); conditions: male BDL mice; 10 mg/kg p.o. once daily for 5 days
Procedure: Male mice (C57BL/6n) were used. After completion of quarantine and acclimatization period, animals were randomized based on body weight into experimental groups (n=10 mice per bile duct ligation group). On day 1, animals underwent bile duct ligation. The ASBT inhibitors were administered p.o. once daily. The animals were weighed every day. At day 6, animals were moved to individual cages for cumulative overnight fecal collection (day 6 to 7). At day 8, blood samples were taken 2 and 6 hours after the final dose. Animals were then sacrificed and samples (urine and blood; liver, kidney and ileum tissues) were collected and analysed.

[6] = in vivo; cited from earlier work
[7] = male BDL mice, dosing started on Day 3
[8] = female BDL mice, 60 mg/kg p.o. twice daily for 6 weeks

Structure (SMILES): CCCCC1(CC)CN(c2ccccc2)c2cc(SC)c(O/C=C(\F)C(=O)O)cc2S(=O)(=O)C1 (stereo not shown) [Compound 1, (Z)-3-((3-butyl-3-ethyl-7-(methylthio)-1,1-dioxido-5-phenyl-2,3,4,5-tetrahydro-1,5-benzothiazepin-8-yl)oxy)-2-fluoroacrylic acid]
concentrations of bile acids in urine, fold higher after treatment (BDL mice [1]): at least 20 fold
body weight loss (BDL mice [2]; dosing started on Day 21): reversed body weight loss
renal injury (BDL mice [2]; dosing started on Day 21): almost completely reversed
body weight loss (BDL mice [2]; dosing started on Day 42): reversed body weight loss
renal injury (BDL mice [2]; dosing started on Day 42): partially reversed
effect on renal injury and body weight loss (BDL mice [2]; dosing started on Day 63): minimal effects
body weight loss (BDL mice [2]; [7]): reversed body weight loss
renal injury (BDL mice [2]; [7]): completely prevented
bioavailability (Bioavailability in mice): 44%
body weight loss due to BDL (BDL mice [3]; [8]): strongly ameliorated
severe fibrosis and cystic dilatation of renal tubules (histology) (BDL mice [3]; [8]): antagonized by Compound 1 almost to the levels of control animals without BDL
urinary BA (BDL mice [3]; [8]): massively increased
urinary KIM-1 (BDL mice [3]; [8]): strongly reduced
urinary NGAL (BDL mice [3]; [8]): strongly reduced
vascular leakage in kidneys (intravital imaging with Evans blue) (BDL mice [3]; [8]): completely reversed
mortality in the 6 week-period (BDL mice [3]; female BDL mice, 60 mg/kg p.o. twice daily, about 50% died in BDL-vehicle group): no mortality
therapeutic efficacy in similarly designed study with male mice (BDL mice [3]; male mice, 6 per group): confirmed the therapeutic efficacy
decrease of serum BA (BDL mice [3]; po, 60 mg/kg, 1008 h): about 90%
IC50 (hIBAT): 21 nM
serum bile acids (BDL mice [4]): lower serum bile acids
urine bile acids (BDL mice [4]): increase urine bile acids
urinary NGAL (BDL mice [4]): lowered urinary NGAL

Papp A→B (Caco-2 permeability): 9.2 ×10⁻⁶ cm/s
Papp B→A (Caco-2 permeability): 0.9 ×10⁻⁶ cm/s
Structure (SMILES): CCCCC1(CCCC)CN(c2ccccc2)c2cc(SC)c(OCCC(=O)O)cc2S(=O)(=O)N1 [Compound 2, 3-((3,3-dibutyl-7-(methylthio)-1,1-dioxido-5-phenyl-2,3,4,5-tetrahydro-1,2,5-benzothiadiazepin-8-yl)oxy)propanoic acid]
serum bile acids (BDL mice [4]): lower serum bile acids
urine bile acids (BDL mice [4]): increase urine bile acids
urinary NGAL (BDL mice [4]): lowered urinary NGAL

Papp A→B (Caco-2 permeability): 29.3 ×10⁻⁶ cm/s
Papp B→A (Caco-2 permeability): 25.3 ×10⁻⁶ cm/s
Structure (SMILES): CCCCC1(C)CN(c2ccccc2)c2cc(SC)c(CSCC(=O)O)cc2S(=O)(=O)C1 (stereo not shown) [Compound 3, 2-(((3-butyl-3-methyl-7-(methylthio)-1,1-dioxido-5-phenyl-2,3,4,5-tetrahydro-1,5-benzothiazepin-8-yl)methyl)thio)acetic acid]

Papp A→B (Caco-2 permeability): 8.7 ×10⁻⁶ cm/s
Papp B→A (Caco-2 permeability): 12.9 ×10⁻⁶ cm/s
IC50 (hIBAT): 2.4 nM
Structure (SMILES): CCCCC1(CC)CN(c2ccc(F)cc2)c2cc(SC)c(OCC(=O)O)cc2S(=O)(=O)C1 (stereo not shown) [Compound 5, 2-((3-butyl-3-ethyl-5-(4-fluorophenyl)-7-(methylthio)-1,1-dioxido-2,3,4,5-tetrahydro-1,5-benzothiazepin-8-yl)oxy)acetic acid]
urinary NGAL (BDL mice [5]): significantly reduced

Structure (SMILES): CCCCC1(CCCC)CS(=O)(=O)c2ccc(N(C)C)cc2[C@@H](c2ccc(OCc3ccc(C[N+]45CCN(CC4)CC5)cc3)cc2)[C@H]1O.[Cl-] [maralixibat, 1-{[4-({4-[(4R,5R)-3,3-dibutyl-7-(dimethylamino)-4-hydroxy-1,1-dioxo-2,3,4,5-tetrahydro-1H-1λ^6-benzothiepin-5-yl]phenoxy}methyl)phenyl]methyl}-1,4-diazabicyclo[2.2.2]octan-1-ium chloride]
systemic absorption following oral administration [6]: less than 10%
